{"source": "patent US20240279602A1", "about": "“METHOD FOR PRODUCING CEREBRAL CORTICAL CELL PREPARATION DERIVED FROM HUMAN PLURIPOTENT STEM CELLS” (Kyoto University, priority 2021, published 2024)", "key": {"[1]": {"system": "cerebral organoids", "experiment": "Flow cytometry of marker expression after DAPT treatment", "format": "cell-based, human", "procedure": "Cerebral organoids, cerebral cortical cell aggregates, and high-purity cerebral cortical cell aggregates were dispersed into single cells by using dispersing solution for neural cells (FUJIFILM Wako Pure Chemical Corporation), fixed by using Fixation Buffer (BD Biosciences) at 4° C. for 30 minutes, then treated with Perm/Wash buffer (BD Biosciences) at room temperature for 15 minutes, subjected to double or triple staining, and analyzed by using an Aria III. The analysis software used was FACSDiva software (BD). The primary antibodies and secondary antibodies used are shown in the following. • PerCP-Cy5.5 Mouse IgGI k isotype control: 550795 (BD Biosciences) Alexa 647 Mouse Anti-human Oct3/4 antigen: 560329 (BD Biosciences) • Tra-2-49/6E-FITC antibody: FCMAB133F (Merck) • Alexa647 mouse anti β-tubulin Class III: 560394 (BD) • PerCP-Cy5.5 Mouse anti-Human Sox1: 561549 (BD) • Alexa647 mouse anti-Human Pax6: 561165(BD) • Alexa488 mouse anti-Ki67: 562249 (BD) • Alexa488 rat anti-Ctip2 antibody: ab123449 (Abcam)\nNext, cell aggregates immediately after DAPT treatment (immediately after the completion of step (ii)) were analyzed for the proportions of constituent cells by means of flow cytometry. Cerebral organoids on Day 40 were subjected to DAPT treatment for 3 days, and expressions of marker genes were then analyzed by flow cytometry.\nFurthermore, iPS cells on Day 0 (undifferentiated iPS cells), organoids not subjected to DAPT treatment (Ctrl, without step (ii)), organoids subjected to DAPT treatment for 3 days (Day 40 to 43) (DAPT 3d, with step (ii)), and organoids subjected to DAPT treatment for 3 days and subsequently cultured again, as cell aggregates without being dispersed into cells, with a culture medium removed of DAPT for 4 days (DAPT 3d+Release 4d, with step (ii) and step (iv), and without step (iii)) were analyzed by flow cytometry; the results are shown in FIG. 15.\nCulture was performed in the same manner as the scheme in FIG. 3 as in Example 1 from −Day 7 to Day 35. A culture medium obtained by adding 5 μM SB431542 to StemFit culture medium without solution C(=bFGF-free culture medium) was used in step (1) in the case of “with preparation for neural differentiation” (with step (1)), and StemFit culture medium was used in the case of “without preparation for neural differentiation” (without step (1)). Thereafter, cerebral cortical cell aggregates were induced by the method described for step (ii) in Example 4, and evaluated by immunostaining. In addition, high-density cerebral cortical cell aggregates were induced by dispersing into single cells and then reaggregating the single cells by the method described for step (iii) and step (iv) in Example 4, and analyzed by flow cytometry.\nIn the “single-cell DAPT method (DAPT treatment is performed in step (iv))” in FIG. 24(B), cerebral organoids were screened on day 38 after the initiation of induction of differentiation and dispersed into single cells by the method described for step (iii) in Example 4, and the cells were then suspended in a culture medium obtained by adding 10 ng/mL GDNF, 20 ng/mL BDNF, 200 μM ascorbic acid, 400 μM dibutyryl-cAMP, and 30 μM Y-27632 to the culture medium in step (2b) with addition of DAPT at a concentration of 0 μM, 0.1 μM, 1 μM, or 10 μM. Subsequently, the cells were regathered by the method described for step (iv) in Example 4 in the presence of DAPT, and cultured for 1 day, 2 days, or 3 days. Thereafter, the culture medium was switched to a culture medium obtained by adding 10 ng/mL GDNF, 20 ng/mL BDNF, 200 μM ascorbic acid, and 400 μM dibutyryl-cAMP to the culture medium in step (2b), and culture was continued until day 10 after the initiation of reaggregation. The cells on day 3, day 4, or day 10 after the initiation of reaggregation were analyzed by RT-qPCR, and the cells on day 10 were analyzed by flow cytometry; the results are shown in FIGS. 25 to 27. […]"}, "[2]": {"system": "cerebral organoids", "experiment": "Single-cell gene expression analysis of Rosettes organoids with or without DAPT", "format": "cell-based, human", "conditions": "Rosettes organoids treated with DAPT for 3 days (DAPT+)", "procedure": "First, to prepare a single-cell suspension from an organoid, the organoid was separated into single cells with dispersing solution for neural cells (FUJIFILM Wako Pure Chemical Corporation) under recommended conditions. The dispersed cells were resuspended in HBSS supplemented with 10% (v/v) KSR and 10 μM Y-27632 (FUJIFILM Wako Pure Chemical Corporation) at a density of 1,000 cells/μL. Into a Chromium Next GEM Chip G (2000177 10X Genomics, Inc.), approximately 4,670 cells were loaded per channel, and treated with a Chromium controller to acquire Gel Beads-in-Emulsion (GEM). Libraries were produced by using Chromium Next GEM Single Cell 3′ Reagent Kits v3.1 (1000121; 10X Genomics, Inc.) in accordance with a protocol from the manufacturer (CG000204 Rev C). The sequences of the libraries were analyzed with Novaseq 6000 (Illumina, Inc.).\nCell Ranger pipeline was used for mapping of sequences in single-cell RNA-seq. GRCh38 human genome sequences were used as reference genome sequences. UMI count values acquired through analysis with a next-generation sequencer were analyzed by using Seurat R package. First, data of organoids were normalized by a Log-Normalize method, and then all the data of organoids were integrated. […]"}, "[3]": {"conditions": "DAPT 3d+Release 4d: DAPT 3 days, then 4 days in medium removed of DAPT, without dispersion"}, "[4]": {"conditions": "single-cell DAPT method (step (iv)), DAPT raised from 0 μM to 10 μM, 3 days treatment, 10 days culture"}, "[5]": {"conditions": "week 5 organoids dispersed, 10 μM DAPT 3 days, then DAPT-free culture to 4 days vs 14 days"}, "[6]": {"conditions": "without preparation for neural differentiation (without step (1)), DAPT treatment, dispersion and reaggregation"}}}
{"smiles": "C[C@H](NC(=O)Cc1cc(F)cc(F)c1)C(=O)N[C@H](C(=O)OC(C)(C)C)c1ccccc1", "note": "[DAPT, N-[N-(3,5-difluorophenacetyl)-L-alanyl]-S-phenylglycine t-butyl ester]", "values": [{"measurement": "proportion of Ki67/Sox1/Pax6-triple-positive cells", "setting": "[1]; [3]", "value": 0, "unit": "%"}, {"measurement": "proportion of cells co-positive for Ctip2 and βIII-tubulin", "setting": "[1]; [3]", "value": 87.4, "unit": "%"}, {"measurement": "proportion of Pax6-positive/Sox1-positive/Ki67-positive cells (proliferative cells)", "setting": "[1]; cerebral organoids on Day 40, DAPT treatment for 3 days (DAPT 3d)", "value": 0.01, "unit": "%"}, {"measurement": "proportion of Ctip2/βIII-tubulin-double-positive cells", "setting": "[1]; cerebral organoids on Day 40, DAPT treatment for 3 days (DAPT 3d), all viable cells", "value": 86.1, "unit": "%"}, {"measurement": "proportion of Pax6/Ki67-double-positive neural stem cells (radial glia)", "setting": "[1]; cerebral organoids on Day 40, DAPT treatment for 3 days, all viable cells", "value": 1.5, "unit": "%"}, {"measurement": "cells with co-expression of Tra2-49/6E and Oct4 (undifferentiated iPS cell indicator)", "setting": "[1]; organoids under any of the conditions (DAPT 3d, DAPT 3d+Release 4d)", "value": "not detected"}, {"measurement": "proportion of Ctip2/βTubIII (Tuj1)-double-positive cells", "setting": "[1]; [4]", "value": 89.6, "unit": "%"}, {"measurement": "proportion of Pax6-positive/Sox1-positive/Ki67-positive cells (proliferative cells)", "setting": "[1]; [4]", "value": 0.8, "unit": "%"}, {"measurement": "proportion of Ctip2/Tuj1-co-positive cells", "setting": "[1]; [5]", "value": "increase"}, {"measurement": "proportion of Pax6/Ki67-double-positive cells and of Pax6/Ki67/Sox1-triple-positive cells", "setting": "[1]; [5]", "value": "decreased as the culture period after DAPT treatment was extended"}, {"measurement": "proportion of Ctip2/βTubIII-double-positive cells", "setting": "[1]; [6]", "value": 85.9, "unit": "%"}, {"measurement": "proportion of Pax6-positive/Sox1-positive/Ki67-positive cells (proliferative cells)", "setting": "[1]; [6]", "value": 0, "unit": "%"}, {"measurement": "proportion of Pax6/Ki67-double-positive neural stem cells (radial glia)", "setting": "[1]; [6]", "value": 1.9, "unit": "%"}, {"measurement": "cell population with expression of Pax6 and MKI67", "setting": "[2]", "value": "largely shrunk"}]}
